Source: ChEMBL document CHEMBL3400111, “Synthesis and melanogenesis evaluation of 3',4',7-trihydroxyflavanone derivatives and characterization of flavanone-BODIPY” (Bioorg Med Chem Lett, 2015)
Calls of active or inactive are those of the source. No cut-off for these calls is given here.

Tests used:
B16-F10 [1] = assay: Induction of melanin synthesis in mouse B16F10 cells after 48 hrs by fluorescence microscopy relative to control; format: functional; set-up: concentration or dose not given beside the values
Mus musculus [2] = assay: Induction of melanogenesis in C57BL/6 depigmentation mouse assessed as increase in tyrosinase protein expression at 1.6 to 4.8 mg/kg, ip for 2 weeks measured on day 12 by H&E staining-based histomorphology; format: functional, organism-based
Mus musculus [3] = assay: Induction of melanogenesis in C57BL/6 depigmentation mouse assessed as increase in melanin content of hair follicle on depigmented skin at 1.6 to 4.8 mg/kg, ip for 2 weeks by H&E stainig-based histomorphology; format: functional, organism-based
Mus musculus [4] = assay: Induction of melanogenesis in C57BL/6 depigmentation mouse assessed as increase in MITF protein expression at 1.6 to 4.8 mg/kg, ip for 2 weeks measured on day 12 by H&E staining-based histomorphology; format: functional, organism-based
Mus musculus [5] = assay: Induction of melanogenesis in C57BL/6 depigmentation mouse assessed as increase in TRP-1 protein expression at 1.6 to 4.8 mg/kg, ip for 2 weeks measured on day 12 by H&E staining-based histomorphology; format: functional, organism-based
Mus musculus [6] = assay: Induction of melanogenesis in C57BL/6 depigmentation mouse assessed as increase in TRP-2 protein expression at 1.6 to 4.8 mg/kg, ip for 2 weeks measured on day 12 by H&E staining-based histomorphology; format: functional, organism-based
[7] = Drug uptake in mouse B16F10 cell nucleus at 0.1 uM after 4 hrs by DAPI staining-based confocal imaging analysis; format: ADME; details: b16-f10, 4 h
[8] = Drug uptake in mouse B16F10 cell endoplasmic reticulum at 0.1 uM after 4 hrs by ER-tracker Red staining-based confocal imaging analysis; format: ADME; details: b16-f10, 4 h
B16-F10 [9] = assay: Induction of melanogenesis in mouse B16F10 cells at 0.01 to 10 uM after 48 hrs by fluorescence microscopy relative to control; format: functional, cell-based
[10] = Cellular uptake in mouse B16F10 cells at 0.1 uM after 4 hrs by confocal imaging analysis in presence of 0.1 to 1 uM 3',4',7-trihydroxyflavaonone; format: ADME, cell-based; details: b16-f10, 4 h

| SMILES | Activity (B16-F10 [1]) [%] | also measured |
| --- | --- | --- |
| COc1ccc2c(c1)OC(c1ccc(OC(=O)c3ccccc3Cl)c(OC(=O)c3ccccc3Cl)c1)CC2=O (centres undefined) | 119.46 | – |
| COc1ccc2c(c1)OC(c1ccc(OC(=O)c3ccco3)c(OC(=O)c3ccco3)c1)CC2=O (centres undefined) | 96.11 | – |
| COc1ccc2c(c1)OC(c1ccc(O)c(O)c1)C/C2=N/O (centres undefined) | 134.71 | Activity (Mus musculus [2]): Active; Activity (Mus musculus [3]): Active; Activity (Mus musculus [4]): Active; Activity (Mus musculus [5]): Active; Activity (Mus musculus [6]): Active |
| COc1ccc2c(c1)OC(c1ccc(OC(=O)c3ccccc3)c(OC(=O)c3ccccc3)c1)CC2=O (centres undefined) | 121.43 | – |
| COc1ccc2c(c1)OC(c1ccc(OS(=O)(=O)c3ccc(C)cc3)c(OS(=O)(=O)c3ccc(C)cc3)c1)CC2=O (centres undefined) | 100.52 | – |
| CCCCCCCCCCCC(=O)Oc1ccc(C2CC(=O)c3ccc(OC)cc3O2)cc1O (centres undefined) | 74.13 | – |
| COc1ccc2c(c1)OC(c1ccc(OC(=O)c3ccc(F)cc3)c(OC(=O)c3ccc(F)cc3)c1)CC2=O (centres undefined) | 111.79 | – |
| CC1=CC(C)=[N+]2C1=C(CCC(=O)N/N=C1\CC(c3ccc(O)c(O)c3)Oc3cc(O)ccc31)c1c(C)cc(C)n1[B-]2(F)F (centres undefined) | – | Drug uptake [7]: Active; Drug uptake [8]: Active; Activity (B16-F10 [9]): Active; Drug uptake [10]: Not Active |
| COc1ccc2c(c1)OC(c1ccc(O)c(O)c1)CC2=O (centres undefined) | 110.31 | – |
| COc1ccc2c(c1)OC(c1ccc(OC(=O)c3ccc(Cl)cc3)c(OC(=O)c3ccc(Cl)cc3)c1)CC2=O (centres undefined) | 121.98 | – |
| C=CCOc1ccc(C2CC(=O)c3ccc(OC)cc3O2)cc1OCC=C (centres undefined) | 91.19 | – |
| CCC(=O)Oc1ccc(C2CC(=O)c3ccc(OC)cc3O2)cc1OC(=O)CC (centres undefined) | 133.65 | – |
| CCCCCCCCCCCCCC(=O)Oc1ccc(C2CC(=O)c3ccc(OC)cc3O2)cc1O (centres undefined) | 44.63 | – |
| CCCCCCCCCCCC(=O)Oc1ccc(C2CC(=O)c3ccc(OC)cc3O2)cc1OC(=O)CCCCCCCCCCC (centres undefined) | 89.54 | – |
| COc1ccc2c(c1)OC(c1ccc(OC(C)=O)c(OC(C)=O)c1)CC2=O (centres undefined) | 132.3 | – |
| COc1ccc2c(c1)OC(c1ccc(OC(=O)c3ccc(C)cc3)c(OC(=O)c3ccc(C)cc3)c1)CC2=O (centres undefined) | 113.49 | – |
